Assay results reported in ChEMBL document CHEMBL4765458, “Synthesis and biological evaluation of organoselenium (NSAIDs-SeCN and SeCF) derivatives as potential anticancer agents” (Eur J Med Chem, 2020).
Calls of active or inactive are those of the source. The rule behind the calls is not given here.

How the values were obtained:
SW480 [1] = experiment: Cytotoxicity against human SW480 cells assessed as reduction in cell viability measured after 72 hrs by MTT assay; format: functional, cell-based; conditions: SW480, 72 h
A549 [2] = experiment: cells; conditions: Homo sapiens, A549, 48 h
Description: Cytotoxicity against human A549 cells assessed as reduction in cell viability measured after 48 hrs by MTT assay

A549 [3] = experiment: Cytotoxicity against human A549 cells assessed as reduction in cell viability measured after 72 hrs by MTT assay; format: functional, cell-based; conditions: A549, 72 h
HeLa [4] = experiment: Cytotoxicity against human HeLa cells assessed as reduction in cell viability measured after 48 hrs by MTT assay; format: functional, cell-based
MCF7 [5] = experiment: Cytotoxicity against human MCF7 cells assessed as reduction in cell viability measured after 48 hrs by MTT assay; format: functional, cell-based; conditions: MCF7, 48 h
A549 [6] = experiment: Cytotoxicity against human A549 cells assessed as reduction in cell viability measured after 24 hrs by MTT assay; format: functional, cell-based; conditions: A549, 24 h
HeLa [7] = experiment: Cytotoxicity against human HeLa cells assessed as reduction in cell viability measured after 24 hrs by MTT assay; format: functional, cell-based
SW480 [8] = experiment: Cytotoxicity against human SW480 cells assessed as reduction in cell viability measured after 24 hrs by MTT assay; format: functional, cell-based; conditions: SW480, 24 h
MCF7 [9] = experiment: Cytotoxicity against human MCF7 cells assessed as reduction in cell viability measured after 72 hrs by MTT assay; format: functional, cell-based; conditions: MCF7, 72 h
MCF7 [10] = experiment: Cytotoxicity against human MCF7 cells assessed as reduction in cell viability measured after 24 hrs by MTT assay; format: functional, cell-based; conditions: MCF7, 24 h
SW480 [11] = experiment: Cytotoxicity against human SW480 cells assessed as reduction in cell viability measured after 48 hrs by MTT assay; format: functional, cell-based; conditions: SW480, 48 h
[12] = Antioxidant activity assessed as DPPH radical scavenging activity incubated for 30 mins under dark condition relative to control; format: functional; parameters: concentration or dose not given beside the values
[13] = Antioxidant activity assessed as GPx-like activity by measuring oxidation of NADPH to NADP+ by NADPH-reductase coupled assay; format: functional
HeLa [14] = experiment: Cytotoxicity against human HeLa cells assessed as reduction in cell viability measured after 72 hrs by MTT assay; format: functional, cell-based
MCF7 [15] = experiment: Induction of apoptosis in human MCF7 cells assessed as up regulation of IL-2 expression at IC50 measured after 48 hrs by ELISA relative to control; format: functional
MCF7 [16] = experiment: Induction of apoptosis in human MCF7 cells assessed as down regulation of Bcl-2 expression at IC50 measured after 48 hrs by ELISA relative to control; format: functional
MCF7 [17] = experiment: Induction of apoptosis in human MCF7 cells assessed as up regulation of caspase-3 expression at IC50 measured after 48 hrs by ELISA relative to control; format: functional

SMILES | IC50 (SW480 [1]) | IC50 (A549 [2]) | IC50 (A549 [3]) | IC50 (HeLa [4]) | IC50 (MCF7 [5]) | IC50 (A549 [6]) | IC50 (HeLa [7]) | IC50 (SW480 [8]) | IC50 (MCF7 [9]) | IC50 (MCF7 [10]) | IC50 (SW480 [11]) | inhibition [12] | Activity [13] | IC50 (HeLa [14]) | fold change (FC) (MCF7 [15]) | Activity (MCF7 [16]) | Activity (MCF7 [17])
CC(C(=O)NCCC[Se]C(F)(F)F)c1ccc(-c2ccccc2)c(F)c1 (stereo not given) | 19.5 µM | 23.2 µM | 35.4 µM | 28.4 µM | 17.1 µM | 14.5 µM | 30.2 µM | 18.3 µM | 18.5 µM | 12.1 µM | 24.4 µM | 40.5% | Active | 14.9 µM |  |  | 
C[C@H](C(=O)NCCC[Se]C(F)(F)F)c1cccc(C(=O)c2ccccc2)c1 | 6.5 µM | 18.4 µM | 22.6 µM | 17.5 µM | 9.3 µM | 13.1 µM | 19.6 µM | 8.2 µM | 9.5 µM | 8.6 µM | 7.4 µM | 48.4% | Active | 28.7 µM |  |  | 
COc1ccc2c(c1)c(CC(=O)O)c(C)n2C(=O)c1ccc(Cl)cc1 [INDOMETHACIN] | > 50 µM | > 50 µM | > 50 µM | > 50 µM | > 50 µM | > 50 µM | > 50 µM | > 50 µM | > 50 µM | > 50 µM | > 50 µM |  |  | > 50 µM |  |  | 
C[C@H](C(=O)NCCC[Se]C#N)c1cccc(C(=O)c2ccccc2)c1 | 7.7 µM | 28.4 µM | 32.6 µM | 18.5 µM | 11.3 µM | 24.1 µM | 25.6 µM | 10.2 µM | 12.5 µM | 9.6 µM | 8.4 µM | 30.4% |  | 34.7 µM |  |  | 
Cc1cccc(Nc2ccccc2C(=O)NCCC[Se]C#N)c1C | 13.2 µM | > 50 µM | > 50 µM | 34.3 µM | 11.2 µM | 37.3 µM | 26.5 µM | 14.4 µM | 7.9 µM | 18.5 µM | 9.7 µM | 26.5% |  | > 50 µM |  |  | 
CC1=C(CC(=O)NCCC[Se]C(F)(F)F)c2cc(F)ccc2/C1=C\c1ccc([S+](C)[O-])cc1 (stereo not given) | 10.1 µM | 11.3 µM | 7.4 µM | 15.1 µM | 6.4 µM | 9.4 µM | 24.3 µM | 13.4 µM | 10.4 µM | 8.2 µM | 11.4 µM | 32.8% |  | 19.4 µM |  |  | 
CC(C)Cc1ccc(C(C)C(=O)NCCC[Se]C#N)cc1 (stereo not given) | 6.4 µM | 30.2 µM | 28.5 µM | 26.3 µM | 14.3 µM | 24.4 µM | 13.5 µM | 8.9 µM | 16.5 µM | 12.1 µM | 5.3 µM | 60.8% | Active | 29.3 µM | 1.5 | Active | Active
COc1ccc2cc([C@H](C)C(=O)NCCC[Se]C#N)ccc2c1 | 30.4 µM | > 50 µM | > 50 µM | 24.5 µM | 27.1 µM | 32.2 µM | 21.5 µM | 12 µM | > 50 µM | 28.3 µM | 21.7 µM | 22.6% |  | 35.7 µM |  |  | 
CC1=C(CC(=O)NCCC[Se]C#N)c2cc(F)ccc2/C1=C\c1ccc([S+](C)[O-])cc1 (stereo not given) | 12.1 µM | 15.3 µM | 9.4 µM | 16.2 µM | 8.4 µM | 11.4 µM | 28.4 µM | 15.4 µM | 11.3 µM | 13.2 µM | 12.4 µM | 21.2% |  | 21.5 µM |  |  | 
O=c1[nH]cc(F)c(=O)[nH]1 [FLUOROURACIL] |  |  | 17.3 µM | 15.5 µM | 10.4 µM | 25.3 µM | 20.6 µM | 15.3 µM | 12.6 µM | 8.5 µM | 12.4 µM |  |  | 12.7 µM |  |  | 
COc1ccc2c(c1)c(CC(=O)NCCC[Se]C#N)c(C)n2C(=O)c1ccc(Cl)cc1 | 14.2 µM | 31.2 µM | > 50 µM | 24.4 µM | > 50 µM | 28.5 µM | 32.1 µM | 16.3 µM | > 50 µM | 28.3 µM | 18.2 µM | 49.6% |  | 19.6 µM |  |  | 
